SMILES strings stand for the structures. Read-outs that look alike come from different tables or passages of the source.

For experiment [1], the target named is T1, wild-type GFS (Homo sapiens, UniProt Q13630).
T1 construct: made in house; host or cells: E. coli Rosetta 2(DE3)
As to the kind of experiment: Global simulation fitting of mechanism b to transient stopped-flow curves. Type of experiment: biochemical. Conditions: release from the ternary product complex enzyme/NADP+/GDP-L-fucose. As for the experimental part:
Spectrofluorometric analysis of ligand binding
Fluorescence titrations of wild-type GFS in the binding of coenzyme, substrate and/or product were performed using a fluorescence spectrophotometer F-4500 (Hitachi, Ltd., Tokyo, Japan).
Emission spectra were recorded in the range 300–500 nm at 1200 nm/min with the excitation […]
25 mM NaCl, pH 8.0) without agitation (25 °C). […] The resulting fluorescence signals were plotted versus ligands concentrations and the data were fitted to a hyperbol ic equation (Eq. S6) to obtain the Kd value (Figure S8, S9; Table S3): […]
where F is the fluorescence emission, [L] is concentration of ligand, F1 is the initial and F2 is the final fluorescence signal, [E] is the enzyme subunit concentration. […]
the fluorescence measurements. […]
Standard errors for the fitted rate constants were estimated as standard deviations based on the variability observed during global fitting . The goodness of fit to the model was assessed by confidence contour analysis, in which all parameters, except for k-1, were well constrained by the data. […]

Experiment [2] deals with enzyme/NADPH4 (GFS/NADPH4 complex) (Homo sapiens, UniProt Q13630). In words: Fluorescence titration, equilibrium binding (quenching of intrinsic protein fluorescence).
Sequence of enzyme/NADPH4 (GFS/NADPH4 complex) (Q13630 8-321, one chain of several): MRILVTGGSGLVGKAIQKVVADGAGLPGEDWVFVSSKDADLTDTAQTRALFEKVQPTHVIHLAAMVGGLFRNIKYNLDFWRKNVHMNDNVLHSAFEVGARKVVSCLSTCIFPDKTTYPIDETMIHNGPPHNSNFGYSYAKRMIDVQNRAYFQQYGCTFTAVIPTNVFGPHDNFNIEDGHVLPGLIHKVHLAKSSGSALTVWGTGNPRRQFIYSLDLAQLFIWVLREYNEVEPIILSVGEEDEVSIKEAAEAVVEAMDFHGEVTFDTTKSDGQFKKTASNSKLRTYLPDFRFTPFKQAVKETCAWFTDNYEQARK
The target in a further experiment is T2, GFS complex with NADPH4 (Homo sapiens, UniProt Q13630).
T2 construct: made in house; host or cells: E. coli Rosetta 2(DE3)
T2 sequence (Q13630 8-321, one chain of several): as above
In words: Stopped-flow transient kinetic analysis of binding of GDP-L-fucose (fluorescence quenching).

Experiment [3] has as its target GFS. More on the design: method as in not given. Conditions: earlier studies of GFS, source organism not given; ref not given; cited from earlier work.
For experiment [4], the target named is enzyme/NADP+ (GFS/NADP+ complex) (Homo sapiens, UniProt Q13630). In words: Fluorescence titration, equilibrium binding (quenching of intrinsic protein fluorescence).
Sequence of enzyme/NADP+ (GFS/NADP+ complex) (Q13630 8-321, one chain of several): as above
The target of experiment [5] is apo GFS (ligand-free wild-type GFS) (Homo sapiens, UniProt Q13630). The experiment is described as above. Conditions: for Kd: apo GFS 0.40 μM, 10 mM Tris, 25 mM NaCl, pH 8.0, 25 °C.
Sequence of apo GFS (ligand-free wild-type GFS) (Q13630 8-321): as the sequence (Q13630 8-321, one chain of several) above
The target in experiment [6] is T1, wild-type GFS. In words: Steady-state initial-rate kinetics and primary KIE (NADPH consumption, absorbance at 340 nm). Type of experiment: biochemical.
The target in another experiment is T3, GFS variant H186K (Homo sapiens, UniProt Q13630, H186K).
T3 construct: made in house; host or cells: E. coli Rosetta 2(DE3)
T3 sequence (Q13630 whole entry H186K): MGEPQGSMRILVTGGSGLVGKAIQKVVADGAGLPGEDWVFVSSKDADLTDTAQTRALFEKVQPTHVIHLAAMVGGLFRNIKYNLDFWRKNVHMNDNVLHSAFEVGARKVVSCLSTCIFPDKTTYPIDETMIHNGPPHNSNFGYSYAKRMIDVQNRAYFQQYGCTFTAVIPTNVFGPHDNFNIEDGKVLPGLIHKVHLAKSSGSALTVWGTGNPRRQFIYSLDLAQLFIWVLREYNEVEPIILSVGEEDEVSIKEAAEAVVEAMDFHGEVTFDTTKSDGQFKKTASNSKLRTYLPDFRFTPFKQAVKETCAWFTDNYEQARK
The description is as above. Type of experiment: biochemical.

For experiment [7], the system named is GFS. More on the design: method as in not given. Particulars: earlier studies of GFS, source organism not given; ref not given; cited from earlier work. This is another data set of the same source.
The next experiment addresses T4, GFS variant C116S (Homo sapiens, UniProt Q13630, C116S).
T4 construct: made in house; host or cells: E. coli Rosetta 2(DE3)
As to the kind of experiment: Steady-state initial-rate kinetics and primary KIE (NADPH consumption, absorbance at 340 nm). Type of experiment: biochemical. Conditions: deuterated vs unlabeled substrate/coenzyme, pH 8.0, 37 °C, in 1/s.

The next experiment concerns the target T5, GFS variant Y143F (Homo sapiens, UniProt Q13630, Y143F).
T5 construct: made in house; host or cells: E. coli Rosetta 2(DE3)
Described as above. Type of experiment: biochemical.

[8] abbreviates: nonlinear fit of kobs with eq S15.
The mark [9] stands for this setting: deuterated vs unlabeled substrate/coenzyme, pH 8.0, 37 °C, in 1/s.
[10] abbreviates: varied substrate 3, pH 8.0, 37 °C.

T1 sequence (Q13630 8-321): as the sequence (Q13630 8-321, one chain of several) above
T5 sequence (Q13630 whole entry Y143F): as the sequence (Q13630 whole entry H186K) above, with Y143F, K186H counted along it
T4 sequence (Q13630 whole entry C116S): as the sequence (Q13630 whole entry H186K) above, with C116S, K186H counted along it

On to `CC1OC(OP(=O)(O)OP(=O)(O)OCC2OC(n3cnc4c(=O)[nH]c(N)nc43)C(O)C2O)C(O)C(O)C1O` [1a, GDP-L-fucose], for which the “rate constant for the release” value at wild-type GFS [1] is given as 12 s^–1. Further, the equilibrium dissociation constant (Kd) in experiment [2] is 1.1 ± 0.2 µM; at GFS complex with NADPH4 (global simulation fit, range 3–12 μM, read-out: Kd (two-step binding)) it was 7 µM; at GFS complex with NADPH4 (nonlinear fit of kobs with eq S15, GFS 2.0 μM, NADPH4 15.0 μM, pH 8.0, 37 °C, read-out: Kd (encounter complex, two-step binding)), 4 ± 2 µM; in [4], 13 ± 4 µM. Further, the “tighter binding to enzyme-NADPH4 than to enzyme-NADP+” value in experiment [2] (ratio of Kd values) was roughly 12 fold. For the same molecule, the koff on GFS complex with NADPH4 (global simulation fit, lower bound only, read-out: koff (association step)) is no less than 11 s⁻¹. Further, on GFS complex with NADPH4 (global simulation fit, lower bound only, read-out: kon (association step)), the kon is no less than 2e+06 M⁻¹ s⁻¹. Further, the “k′1” value at GFS complex with NADPH4 (global simulation fit, range 0.3–0.8 s^–1) is given as 0.6 s^–1. The “k′–1” value at GFS complex with NADPH4 (global simulation fit, range 0.5–1.4 s^–1) was 0.9 s^–1. The “k′1 (forward conformational change)” value at GFS complex with NADPH4 (setting [8]) came to 0.6 ± 0.1 s⁻¹. In addition, the “k′–1 (reverse conformational change, GDP-L-fucose release rate)” value at GFS complex with NADPH4 (setting [8]) is on record as 0.5 ± 0.1 s^–1. Besides, the inhibition constant Ki on GFS [3] is 55.3 µM.
Consider `Nc1nc2c(ncn2[C@@H]2O[C@H](COP(=O)(O)OP(=O)(O)O)[C@@H](O)[C@H]2O)c(=O)[nH]1` [GDP, guanosine 5′-diphosphate], for which the Ki at GFS [3] is 60.5 µM.
Consider `NC(=O)c1ccc[n+]([C@@H]2O[C@H](COP(=O)([O-])OP(=O)(O)OC[C@H]3O[C@@H](n4cnc5c(N)ncnc54)[C@H](OP(=O)(O)O)[C@@H]3O)[C@@H](O)[C@H]2O)c1` [NADP+], for which, on wild-type GFS [1], the “rate constant for the release” value is 26 s^–1. Binding in [5] was characterised by a dissociation constant (Kd) of 8 ± 2 µM.
In experiment [5], `NC(=O)C1=CN([C@@H]2O[C@H](COP(=O)(O)OP(=O)(O)OC[C@H]3O[C@@H](n4cnc5c(N)ncnc54)[C@H](OP(=O)(O)O)[C@@H]3O)[C@@H](O)[C@H]2O)CCC1` [NADPH4, 1″,4″,5″,6″-tetrahydro-NADPH] yielded a Kd of 0.3 ± 0.1 µM. In experiment [5] (ratio of Kd values), the “tighter binding to the free GFS than NADP+” value is 27 fold.
Consider `NC(=O)C1=CN([C@@H]2O[C@H](COP(=O)(O)OP(=O)(O)OC[C@H]3O[C@@H](n4cnc5c(N)ncnc54)[C@H](OP(=O)(O)O)[C@@H]3O)[C@@H](O)[C@H]2O)C=CC1` [NADPH], for which, on wild-type GFS [6] (varied NADPH, substrate 3 100 μM, pH 8.0, 37 °C), the Km was 0.75 ± 0.03 µM.
Regarding `[2H][C@@H]1C=CN([C@@H]2O[C@H](COP(=O)(O)OP(=O)(O)OC[C@H]3O[C@@H](n4cnc5c(N)ncnc54)[C@H](OP(=O)(O)O)[C@@H]3O)[C@@H](O)[C@H]2O)C=C1C(N)=O` [[4S-^2H]-NADPH], the “kinetic isotope effect on kcat (Dkcat)” value turned out to be 1.12 ± 0.08 at GFS variant H186K (setting [9]), 1.03 ± 0.05 at wild-type GFS [6] (setting [9]), 1.0 ± 0.2 at GFS variant C116S and 3.9 ± 0.3 on GFS variant Y143F (setting [9]). Also, the “kinetic isotope effect on kcat/Km, Dkcat/Km^3” value at GFS variant H186K (setting [10]) came to 1.1 ± 0.5; on wild-type GFS [6] (setting [10]), 1.4 ± 0.4; at GFS variant Y143F (setting [10]) it was 4 ± 1. In addition, the “KIE on the enzymatic rate” value with GFS [7] was 1.4. In addition, the “kinetic isotope effect on kcat/Km, Dkcat/Km^NADPH” value on wild-type GFS [6] (varied coenzyme, substrate 3 100 μM, pH 8.0, 37 °C) is listed as 1.6 ± 0.2.

By Kd is commonly meant a measure of binding affinity in units of concentration. A word on the koff: it is a measure of how fast the partners let go of each other. As a reminder, the kon is the second-order rate constant of association. For orientation: Ki means the dissociation constant of the complex between target and ligand, obtained from inhibition or displacement. For orientation: Km means the substrate concentration at which the rate is half of its maximum.

The values are drawn from paper PMC12362431, “Kinetic Dissection of the Reaction of Human GDP-L-Fucose Synthase” (ACS Catalysis, 2025).
